The values that follow come from ChEMBL document CHEMBL1155061, “Conjugates of gonadotropin releasing hormone (GnRH) with carminic acid: Synthesis, generation of reactive oxygen species (ROS) and biological evaluation” (Bioorg Med Chem, 2008).

In test [1] the test system is Pituitary gland cell. Briefly: Effect on LH release in rat pituitary cells after 4 hrs. The class given is functional, cell-based.
Test [2] in a line: Stimulation of ERK phosphorylation in alphaT3-1 cells. The class given is cell-based.

Molecules are shown by their SMILES. Activity calls are given as the source filed them. The rule behind the calls is not given here.

Consider `Cc1c(C(=O)NCCC(=O)NCCCC[C@@H](NC(=O)[C@H](Cc2ccc(O)cc2)NC(=O)[C@H](CO)NC(=O)[C@H](Cc2c[nH]c3ccccc23)NC(=O)[C@H](Cc2cnc[nH]2)NC(=O)[C@@H]2CCC(=O)N2)C(=O)N[C@@H](CC(C)C)C(=O)N[C@@H](CCCNC(=N)N)C(=O)N2CCC[C@H]2C(=O)NCC(N)=O)c(O)cc2c1C(=O)c1c(O)c([C@H]3O[C@H](CO)[C@@H](O)[C@H](O)[C@H]3O)c(O)c(O)c1C2=O`, for which the outcome in test [1] and in test [2] was Active.

Consider `CC(C)C[C@H](NC(=O)[C@@H](CCCCN)NC(=O)[C@H](Cc1ccc(O)cc1)NC(=O)[C@H](CO)NC(=O)[C@H](Cc1c[nH]c2ccccc12)NC(=O)[C@H](Cc1cnc[nH]1)NC(=O)[C@@H]1CCC(=O)N1)C(=O)N[C@@H](CCCNC(=N)N)C(=O)N1CCC[C@H]1C(=O)NCC(N)=O`, for which the outcome in test [1] and in test [2] was Active.
